Results published in patent US20260124170A1, “PHARMACEUTICAL COMPOSITION COMPRISING METABOLITE OF ENAVOGLIFLOZIN, AND USE THEREOF” (DAEWOONG PHARMACEUTICAL CO., LTD., priority 2022, published 2026).
“Also recorded” adds a separate entry of the source.

Legend:
[1] = Half-life of M2 (rapid dissipation); conditions: in vivo
normal rats = experiment: Urinary glucose excretion (UGE) after intravenous administration; assay type: in vivo, rat; conditions: 1 mg/kg intravenous, 6-72 hours
Protocol: Enavogliflozin, M1, or M2 was intravenously administered once to normal rats, and antidiabetic efficacy was evaluated.
To perform the oral glucose tolerance test (OGTT) and examine urinary glucose excretion (UGE), enavogliflozin, M1, or M2 was administered intravenously to male 8-week-old normal rats at a dose of 1 mg/kg, and then a glucose solution (2 g/kg) was administered to load blood sugar. The blood sugar level was measured before glucose solution administration and at 5, 10, 15, 20, 30, 40, 60, 90, and 120 minutes after the administration to evaluate oral glucose tolerance. In addition, the UGE was evaluated by measuring the amount of glucose excreted in the urine 6, 24, 48, and 72 hours after the administration of the glucose solution.

[2] = tested on: STZ-induced type 1 diabetic rats; experiment: Non-fasting blood glucose in type 1 diabetic rat model; assay type: in vivo; conditions: 1 mg/kg single intravenous dose
Protocol: (§1) STZ was administered to Sprague Dawley (SD) male 5-week-old rats on day 0 (G2 to G7, excluding G1), and non-fasting blood glucose levels were measured on day 3 to determine whether type 1 diabetes was induced. On day 7, the experimental substances were administered to each group, and blood and urine samples were collected at 6 h, 24 h, 48 h, and 72 h to measure non-fasting blood glucose levels. On day 14 of the experiment, the experimental animals were fasted for 16 h, and on day 15, 2 g/kg of glucose solution was orally administered after the experimental substances were administered. Thereafter, blood glucose levels were measured at 15, 30, 60, 90, and 120 minutes after glucose administration. After blood collection, the serum was separated, and the IL-6 inflammatory response was evaluated using an interleukin-6 (IL-6) enzyme-linked immunosorbent assay (ELISA) kit.

interleukin-6 (IL-6) = experiment: Serum IL-6 ELISA in type 1 diabetic rat model; assay type: in vivo; conditions: STZ rats, 6, 24, 48, 72 hours after administration
Protocol: as §1

SGLT2 = molecular target: T1, SGLT2 (Homo sapiens, UniProt P31639); experiment: Applicant's preliminary study of SGLT2 inhibition, intracellular retention and activity recovery; assay type: cell-based
T1 construct: expressed in transfected cells
T1 sequence (P31639 1-672): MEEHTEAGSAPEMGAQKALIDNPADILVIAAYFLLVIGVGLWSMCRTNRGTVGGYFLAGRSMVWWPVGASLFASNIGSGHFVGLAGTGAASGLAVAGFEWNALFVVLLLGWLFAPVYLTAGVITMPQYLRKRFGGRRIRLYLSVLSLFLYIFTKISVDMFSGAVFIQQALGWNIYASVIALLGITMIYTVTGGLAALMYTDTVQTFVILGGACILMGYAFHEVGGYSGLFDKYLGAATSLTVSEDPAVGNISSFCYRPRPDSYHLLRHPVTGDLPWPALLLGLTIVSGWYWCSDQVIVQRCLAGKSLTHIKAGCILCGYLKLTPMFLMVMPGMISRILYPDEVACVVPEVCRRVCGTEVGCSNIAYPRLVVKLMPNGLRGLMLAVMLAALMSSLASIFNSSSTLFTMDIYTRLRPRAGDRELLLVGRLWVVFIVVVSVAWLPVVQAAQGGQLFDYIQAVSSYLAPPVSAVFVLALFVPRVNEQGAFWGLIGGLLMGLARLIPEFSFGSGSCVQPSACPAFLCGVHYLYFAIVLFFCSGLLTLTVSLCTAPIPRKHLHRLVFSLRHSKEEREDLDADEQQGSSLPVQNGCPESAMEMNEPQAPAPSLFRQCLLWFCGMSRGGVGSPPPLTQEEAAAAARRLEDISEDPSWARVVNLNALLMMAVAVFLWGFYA

| half-life [1] [min] | Amount of drug remaining in the cells (SGLT2; after culturing for 24 hours, compared to dapagliflozin and ipragliflozin) | Change in inhibition after pretreatment (SGLT2; pretreatment for up to two hours, preliminary study) | Compound | Urinary glucose excretion (UGE) (normal rats) | Non-fasting blood sugar level [2] | Change in IL-6 level (interleukin-6 (IL-6)) | Inhibition mechanism of SGLT2 (Dixon plot and Replot) (SGLT2; preliminary study) |
| --- | --- | --- | --- | --- | --- | --- | --- |
| 48 |  |  | OC[C@H]1O[C@@H](c2cc(Cc3ccc(C4(O)CC4)cc3)c(Cl)c3c2CCO3)[C@H](O)[C@@H](O)[C@@H]1O [M2, (2S,3R,4R,5S,6R)-2-(7-chloro-6-(4-(1-hydroxycyclopropyl)benzyl)-2,3-dihydrobenzofuran-4-yl)-6-(hydroxymethyl)tetrahydro-2H-pyran-3,4,5-triol] | UGE was observed from six hours after intravenous administration; also recorded: less glucose was excreted than enavogliflozin and M1 for up to 24 hours |  |  |  |
|  |  |  | OC[C@H]1O[C@@H](c2cc(Cc3ccc(C4CC4)cc3)c(Cl)c3c2CC(O)O3)[C@H](O)[C@@H](O)[C@@H]1O (stereo partly drawn) [M1, (2S,3R,4R,5S,6R)-2-(7-chloro-6-(4-cyclopropylbenzyl)-2-hydroxy-2,3-dihydrobenzofuran-4-yl)-6-(hydroxymethyl)tetrahydro-2H-pyran-3,4,5-triol] | UGE was observed from six hours after intravenous administration; also recorded: similar | lowest blood sugar level at 48 hours after administration | significant decrease in all dose groups |  |
|  | significantly higher | no change in inhibition | OC[C@H]1O[C@@H](c2cc(Cc3ccc(C4CC4)cc3)c(Cl)c3c2CCO3)[C@H](O)[C@@H](O)[C@@H]1O [Enavogliflozin, (2S,3R,4R,5S,6R)-2-(7-chloro-6 (4-cyclopropylbenzyl)-2,3-dihydrobenzofuran-4-yl)-6-(hydroxymethyl)tetrahydro-2H-pyran-3,4,5-triol] |  |  | slight decrease | reversible competitive inhibition mechanism |
